Results: patent US20130245026A1, “TREATMENT OF CANCER WITH TOR KINASE INHIBITORS” (SIGNAL PHARMACEUTICALS, LLC, priority 2012, published 2013)
pIC50: −log10 of the molar value. Read-outs that look alike come from different tables or passages of the source.

Key:
[1] = system: patient-derived tumor cells; experiment: Apoptosis assay using patient tumor cells (CellEvent, caspase 3 and 7); type: cell-based, human; conditions: concentration between 0.1-10 μM; 48 hours of treatment
Description: (§1) Proliferation and Apoptosis Assay Using Patient Tumor Cells.
(§2) Cryopreserved patient-derived tumor cells were resurrected from liquid nitrogen storage and conditioned on coated plates prior to drug treatment. […] The mitotic activity of the cells was assessed by measuring ethynyl […] (EdU) incorporation during S-phase. The untreated control wells received medium containing DMSO (vehicle used to dissolve each compound and EdU). […] The apoptotic activity of the cells was assessed by measuring CellEvent incorporation due to caspase 3 and 7 activation. The untreated control wells received medium containing DMSO (vehicle used to dissolve each compound and CellEvent). After conditioning, cell lines were plated on a 3D matrix in two 96-well plates. The cells were allowed to settle and form spheroid structures for 48 hours. Then, 48 hours after plating, the cells were treated with compound.
The cells were treated only on Day 1. After 48 hours of compound treatment, CellEvent was added to measure the apoptotic activity in cells. […] For the Apoptosis assay, images were analyzed using a Multi Wavelength Scoring Algorithm (Molecular Devices, Sunnyvale, Calif.) to quantify mean fluorescent intensities (MFI) of each well for activated caspase 3 and 7 using CellEvent. The CellEvent mean fluorescence intensities (MFI) of treated wells and untreated controls were averaged and plotted.

[2] = system: patient-derived tumor cells; experiment: Proliferation assay using patient tumor cells (EdU incorporation, 3D matrix); type: cell-based; conditions: Homo sapiens
Description: as §1, §2
The cells were treated only on Day 1. For the last 48 hours of the treatment, EdU was added to measure the cell proliferation. At the end of the treatment, plates were fixed, permeabilized and stained for EdU uptake (proliferation marker) and DAPI (nuclear marker). Plates were imaged at 4× magnification using ImageXpress Micro (Molecular Devices, Sunnyvale, Calif.). Seven z-stacks at 5 sites per well were captured and deconvoluted to create the images for analysis. For the proliferation assay, images were analyzed using a Multi Wave Scoring Algorithm (Molecular Devices, Sunnyvale, Calif.) to quantify mean fluorescent intensities (MFI) of each well for EdU. The EdU MFI's for the treated wells were normalized to those of the untreated wells to generate the compound response curves.

SCC-25 [3] = experiment: Growth inhibition assay for head and neck (HN) cancer cell lines; type: cell-based; conditions: Homo sapiens, 72 hours, Cell Titer-Glo
Description: (§3) Growth Inhibition Assay for Head and Neck (HN) Cancer Cell Lines.
(§4) A serial titration was performed to produce a working concentration range of 1.5 μM to 10 mM. Aliquots to produce final concentrations of 1.5 nM to 10 μM were spotted via an acoustic dispenser (EDC ATS-100) into an empty 384-well plate. […] The DMSO concentration was kept constant for a final assay concentration of 0.1% DMSO. Plates were replicated for use with different cell lines and testing periods. After compound plate replication, all plates were sealed (Agilent ThermoLoc) and stored at −20° C. for up to 1 month. […] When ready for testing, plates were removed from the freezer, thawed, and unsealed just prior to the addition of the test cells. Prior to testing, cells were grown and expanded in culture flasks to provide sufficient amounts of starting material. Cells were then diluted to the appropriate densities and added directly to the compound-spotted 384-well plates. Cells were allowed to grow for 72 hours at 37° C./5% CO2. At the time when compound was added (t0), initial cell number was assessed via a viability assay (Cell Titer-Glo) by quantifying the level of luminescence generated by ATP present in viable cells. After 72 hours, cell viability of compound-treated cells was assessed via Cell Titer-Glo and luminescence measurement. […] A control cell line (the lung tumor cell line, A549) was included in each of the assays. The compound response against this control cell line was monitored closely to enable comparison of the data generated through the assay period. All data were normalized and presented as a percentage of the DMSO-treated cells. Results were then expressed as a GI50 value. The GI50 value corrects for the cell count at time zero.

HN [4] = experiment: as above; type: cell-based; conditions: 72 h
Description: as §3, §4

CAL-27 [5] = experiment: as above; type: cell-based; conditions: Homo sapiens, 72 hours, Cell Titer-Glo
Description: as §3, §4

FADU [6] = experiment: as above; type: cell-based; conditions: Homo sapiens, 72 hours, Cell Titer-Glo
Description: as §3, §4

Detroit562 [7] = experiment: as above; type: cell-based; conditions: Homo sapiens, Detroit 562, 72 hours, Cell Titer-Glo
Description: as §3, §4

RPMI-2650 [8] = experiment: as above; type: cell-based; conditions: Homo sapiens, 72 hours, Cell Titer-Glo
Description: as §3, §4

SCC-9 [9] = experiment: as above; type: cell-based; conditions: Homo sapiens, 72 hours, Cell Titer-Glo
Description: as §3, §4

SCC-15 [10] = experiment: as above; type: cell-based; conditions: Homo sapiens, 72 hours, Cell Titer-Glo
Description: as §3, §4

A253 [11] = experiment: as above; type: cell-based; conditions: Homo sapiens, 72 hours, Cell Titer-Glo
Description: as §3, §4

CAL-33 [12] = experiment: as above; type: cell-based; conditions: Homo sapiens, 72 hours, Cell Titer-Glo
Description: as §3, §4

BHY [13] = experiment: as above; type: cell-based; conditions: 72 hours, Cell Titer-Glo
Description: as §3, §4

SCC-25 [14] = experiment: Apoptosis assay for HN cancer cell lines (Caspase 3/7-Glo); type: cell-based; conditions: 24 hours
Description: (§5) Apoptosis Assay for HN Cancer Cell Lines.
(§6) Prior to testing, cells were grown and expanded in culture flasks to provide sufficient amounts of starting material. Cells were then diluted to their desired densities and added directly to compound-spotted 384-well plates. Cells were allowed to grow for 24 hours in 5% CO2 at 37° C. The apoptotic response was assessed by quantifying the activities of caspase 3 and caspase 7 (Caspase 3/7-Glo) in treated cells and control cells at the 24-hour time point. All data was normalized and represented as a value relative to the DMSO-treated cells. Results were then expressed as CalX, which is the minimum compound concentration required to double the levels of caspase 3/7 relative to those of the DMSO-treated cells during their treatment period.

HN [15] = experiment: as above; type: cell-based; conditions: minimum concentration to double caspase 3/7 vs DMSO, 24 hours
Description: as §5, §6

CAL-27 [16] = experiment: as above; type: cell-based; conditions: 24 hours
Description: as §5, §6

FADU [17] = experiment: as above; type: cell-based; conditions: 24 hours
Description: as §5, §6

Detroit562 [18] = experiment: as above; type: cell-based; conditions: 24 hours
Description: as §5, §6

RPMI-2650 [19] = experiment: as above; type: cell-based; conditions: 24 hours
Description: as §5, §6

SCC-9 [20] = experiment: as above; type: cell-based; conditions: 24 hours
Description: as §5, §6

SCC-15 [21] = experiment: as above; type: cell-based; conditions: 24 hours
Description: as §5, §6

A253 [22] = experiment: as above; type: cell-based; conditions: 24 hours
Description: as §5, §6

CAL-33 [23] = experiment: as above; type: cell-based; conditions: 24 hours
Description: as §5, §6

BHY [24] = experiment: as above; type: cell-based; conditions: 24 hours
Description: as §5, §6

[25] = corrected for cell count at time zero
[26] = Table 1, minimum concentration to double caspase 3/7 vs DMSO
[27] = minimum concentration to double caspase 3/7 vs DMSO

## CCN1C(=O)CNc2ncc(-c3ccc(-c4nc[nH]n4)nc3C)nc21 [Compound 1, 1-ethyl-7-(2-methyl-6-(1H-1,2,4-triazol-3-yl)pyridin-3-yl)-3,4-dihydropyrazino[2,3-b]pyrazin-2(1H)-one]
[1]
  apoptosis (activated caspase 3 and 7, CellEvent MFI): Apoptosis was observed in some patient-derived samples
[2]; Unknown, Left palate, read-out: Prolif IC50
  pIC50: 6.26
[2]; person, H&N carcinoma, Left superior segment, read-out: Prolif IC50
  pIC50: 6.59
[2]; person, H&N carcinoma, Lung, read-out: Prolif IC50
  pIC50: 6.47
[2]; person, Larynx carcinoma, Left side neck, read-out: Prolif IC50
  pIC50: 6.99
[2]; person, Squamous carcinoma H&N, Neck, read-out: Prolif IC50
  pIC50: 5.77
[2]; person, Squamous carcinoma H&N, Right lower lobe lung, read-out: Prolif IC50
  pIC50: 6.86
[2]; person, Squamous carcinoma H&N, Right nasal, read-out: Prolif IC50
  pIC50: 6.62
[2]; person, Squamous cell H&N, Cervical lymph node, read-out: Prolif IC50
  pIC50: 6.84
[2]; person, Squamous cell H&N, Left chest wall, read-out: Prolif IC50
  pIC50: 6.81
[2]; person, Squamous cell H&N, Left neck lymph node, read-out: Prolif IC50
  pIC50: 6.30
[2]; person, Squamous cell H&N, Left neck, cervical, read-out: Prolif IC50
  pIC50: 6.37
[2]; person, Squamous cell H&N, Left tonsil, read-out: Prolif IC50
  pIC50: 6.79
[2]; person, Squamous cell H&N, Mass, left latisimal muscle, read-out: Prolif IC50
  pIC50: 6.94
[2]; person, Squamous cell H&N, Mass, skull base excision, read-out: Prolif IC50
  pIC50: 6.80
[2]; person, Squamous cell H&N, Pleural fluid, read-out: Prolif IC50
  pIC50: 6.27
[2]; person, Squamous cell H&N, Right lower lobe lung, read-out: Prolif IC50
  pIC50: 6.49
[2]; person, Squamous cell H&N, Right pleural biopsy, read-out: Prolif IC50
  pIC50: 6.36
[2]; person, Squamous cell tongue, Right axilliary node, read-out: Prolif IC50
  pIC50: 6.50
[2]; person, Tongue, Left neck mass, read-out: Prolif IC50
  pIC50: 6.42
[2]; span over all patient tumor cell samples of Table 3, read-out: inhibition of proliferation of patient tumor cells, IC50
  pIC50: 5.74 to 7.00
SCC-25 [3]
  pIC50: 6.75
SCC-25 [3]; [25]
  GI50: 127 nM
HN [4]
  GI50: 117 nM
  pIC50: 6.75
CAL-27 [5]
  pIC50: 6.75
CAL-27 [5]; [25]
  GI50: 144 nM
FADU [6]
  pIC50: 5.93
FADU [6]; [25]
  GI50: 792 nM
Detroit562 [7]
  pIC50: 6.60
Detroit562 [7]; [25]
  GI50: 169 nM
RPMI-2650 [8]
  pIC50: 6.41
RPMI-2650 [8]; [25]
  GI50: 219 nM
SCC-9 [9]
  pIC50: 6.44
SCC-9 [9]; [25]
  GI50: 129 nM
SCC-15 [10]
  pIC50: 6.17
SCC-15 [10]; [25]
  GI50: 56.8 nM
A253 [11]
  pIC50: 6.42
A253 [11]; [25]
  GI50: 303 nM
CAL-33 [12]
  pIC50: 7.16
CAL-33 [12]; [25]
  GI50: 42.7 nM
BHY [13]
  pIC50: 6.68
BHY [13]; [25]
  GI50: 39.5 nM
SCC-25 [14]; [26]
  Cal X: > 10 µM
SCC-25 [14]; [27]
  CalX: >10 µM
HN [15]
  CalX: >10 µM
CAL-27 [16]; [26]
  Cal X: > 10 µM
CAL-27 [16]; [27]
  CalX: >10 µM
FADU [17]; [26]
  Cal X: > 10 µM
FADU [17]; [27]
  CalX: >10 µM
Detroit562 [18]; [26]
  Cal X: > 10 µM
Detroit562 [18]; [27]
  CalX: >10 µM
RPMI-2650 [19]; [26]
  Cal X: > 10 µM
RPMI-2650 [19]; [27]
  CalX: >10 µM
SCC-9 [20]; [26]
  Cal X: > 10 µM
SCC-9 [20]; [27]
  CalX: >10 µM
SCC-15 [21]; [26]
  Cal X: > 10 µM
SCC-15 [21]; [27]
  CalX: >10 µM
A253 [22]; [26]
  Cal X: > 10 µM
A253 [22]; [27]
  CalX: >10 µM
CAL-33 [23]; Table 1, minimum concentration to double caspase 3/7 vs DMSO, in µM
  Cal_X: 0.8764
CAL-33 [23]; [27]
  CalX: 0.8764 µM
BHY [24]; [26]
  Cal X: > 10 µM
BHY [24]; [27]
  CalX: >10 µM
